Tests used:
[1] = test system: Notch signalling; test: RBP-Jk-Fluc reporter assay in 293T cells; format: cell-based
Experimental: 293T cells were infected with lenti-RBP-Jk-Fluc vector and treated with 50 μM HU or γ-secretase inhibitor DAPT for […]. Cell lysates was imaged and analyzed for Fluc activity with the Xenogen IVIS 200 Imaging System. **p<0.01 vs. DMSO (n=8 for DMSO, n=5 for HU or DAPT treatment).
(§1) Since HU is known to target ribonucleotide reductase subunit 2 (RNR), knockdown experiment was first performed in different cell lines using shRNA against RNR (shRNR) or scrambled control (ShScram) and different concentrations of TMZ. […] Other ribonucleotide reductase (RNR) inhibitors were further evaluated to determine if a similar effect as HU is obtained on GBM. GBM cells from recurrent tumors expressing Gluc were treated in a 96-well plate with either fludarabine or gemcitabine—classical RNR inhibitors—and cell viability was assessed by the Gluc assay. […] The RBP-Jk-Fluc reporter plasmid which carries RBP-Jk transcriptional response element driving the expression of Fluc34 was used. RBP-Jk is a DNA binding transcription factor and a direct downstream modulator of Notch signalling. Thus, this reporter can indirectly monitor Notch activity (Minoguchi, S., et al., Mol Cell Biol 1997, 17, 2679-2687). 293T cells were transfected with this plasmid, treated with 30 μM HU, and monitored Fluc activity 3 days later.

[2] = test system: U87R1 tumors; test: Intracranial U87R1-Fluc (TMZ-resistant) tumor model, Fluc imaging and survival; conditions: 5 mg/kg TMZ i.p., 50 mg/kg HU i.p., start one week post-implantation
Experimental: U87R1 cells (20,000 cells/mouse) expressing Fluc were implanted in the brain of nude mice. One week later, mice were divided in four groups (n=10-20/group) and treated with 1). DMSO vehicle as control, 2). 50 mg/kg HU, 3). 5 mg/kg TMZ or 4). 5 mg/kg TMZ+50 mg/kg HU. In FIG. 2E, tumor growth was monitored over time by Fluc imaging. […] In FIG. 2F, survival was recorded to generate the Kaplan-Meier plot.
200,000 U87R1 cells expressing Fluc were implanted in the brain of nude mice. Two weeks later, mice were divided in two groups (n=10/group) and treated with either TMZ or TMZ+HU. Survival was recorded.
U87R1 cells expressing Fluc were implanted in the brain of nude mice. One week later, mice were divided in four groups (n=10-20/group) and treated with either DMSO vehicle, radiation (R; 3 Gy), HU, TMZ or R+TMZ+HU. Tumor growth was monitored over time by Fluc imaging and survival was recorded to generate the Kaplan-Meier plot.
U87 or U87R1 cells were first transduced with a lentivirus vector to stably express firefly luciferase (Fluc), a reporter which can be used to track tumor growth in vivo (Wurdinger, T., et al., Nat Methods 2008, 5, 171-173). Fifty thousands of these cells were intracranially injected in the brain of nude mice as previously described. One week post-tumor implantation, mice were randomized into four different groups receiving: (1) DMSO vehicle control; (2) intraperitoneal (i.p) injection of 5 mg/kg TMZ; (3) 50 mg/kg HU i.p.; (4) combination of TMZ+HU. Tumor growth was monitored over time by in vivo Fluc bioluminescence imaging using a cooled CCD camera (Wurdinger, T., et al., Nat Methods 2008, 5, 171-173). […]
GBM cells were first transduced with a lentivirus vector to stably express Fluc. […] Tumor growth was monitored over time by in vivo Fluc bioluminescence imaging after i.p. injection of 200 mg/kg D-luciferin substrate and acquiring signal using a cooled CCD camera (Wurdinger, T., et al., Nat Methods 2008, 5, 171-173).

[3] = for certain chemotherapeutics; cited from earlier work
[4] = format: in vivo; conditions: mice treated four consecutive days; HU 30 mg/kg, TMZ 30 mg/kg
Experimental: Primary GBM8 cells24 (from newly diagnosed tumor with methylated MGMT (Wakimoto, H., et al., Neuro Oncol 2012, 14, 132-144)) were grown in stem cell media as neural spheres. […] Upon intracranial injection, these cells formed tumors and infiltrated the brain of nude mice similar to human tumors (FIGS. 4A-4C). This model was used to test the efficacy of HU in combination with TMZ. Four weeks after implantation of 100,000 GBM8 cells, when tumors started to rapidly grow (as observed by Fluc imaging), mice were divided into two groups (n=20/group) which received DMSO vehicle or i.p. injection of 30 mg/kg TMZ four days/week over two weeks. […] Mice were then left off TMZ to allow for GBM tumors to recur potentially becoming resistant to TMZ, recapitulating the patient scenario. […] Next, the toxicity of this combined therapy was assessed by treating mice with either DMSO, TMZ, HU, or HU+TMZ for four consecutive days and analyzing the blood for white blood cells (WBC), hematocrit (HCT), mean corpuscular volume (MCV), red cell distribution width (RDW), hemoglobin (HGB), mean corpuscular hemoglobin (MCH), red blood cells (RBC), platelets (PLT), and mean platelet volume (MPV). […] Hematotoxicity on bone marrow was also evaluated by preparing bone marrow smears and counting viable cells from untreated and TMZ/HU-treated naïve mice as above.

[5] = test system: malignant gliomas; conditions: in combination with radiation or cytotoxic chemotherapy, not TMZ; cited from earlier work
[6] = test system: U87 tumors; test: Intracranial U87-Fluc tumor model, Fluc imaging and survival; conditions: 5 mg/kg TMZ i.p., 50 mg/kg HU i.p., start one week post-implantation
Experimental: U87 cells (20,000 cells/mouse) expressing Fluc were implanted in the brain of nude mice. One week later, mice were divided in four groups (n=10-20/group) and treated with 1). DMSO vehicle as control, 2). 50 mg/kg HU, 3). 1 mg/kg TMZ or 4). 1 mg/kg TMZ+50 mg/kg HU. In FIG. 2A, tumor growth was monitored over time by Fluc imaging. X-axis, days after treatment starts. In FIG. 2B, survival was recorded to generate the Kaplan-Meier plot. X-axis, days after treatment starts.
U87 cells (20,000 cells/mouse) expressing Fluc were implanted in the brain of nude mice. One week later, mice were divided in four groups (n=10-20/group) and treated with 1). DMSO vehicle as control, 2). 50 mg/kg HU, 3). 5 mg/kg TMZ or 4). 5 mg/kg TMZ+50 mg/kg HU. In FIG. 2C, tumor growth was monitored over time by Fluc imaging. X-axis, days after treatment starts. In FIG. 2D, survival was recorded to generate the Kaplan-Meier plot. X-axis, days after treatment starts.
U87 or U87R1 cells were first transduced with a lentivirus vector to stably express firefly luciferase (Fluc), a reporter which can be used to track tumor growth in vivo (Wurdinger, T., et al., Nat Methods 2008, 5, 171-173). Fifty thousands of these cells were intracranially injected in the brain of nude mice as previously described. One week post-tumor implantation, mice were randomized into four different groups receiving: (1) DMSO vehicle control; (2) intraperitoneal (i.p) injection of 5 mg/kg TMZ; (3) 50 mg/kg HU i.p.; (4) combination of TMZ+HU. Tumor growth was monitored over time by in vivo Fluc bioluminescence imaging using a cooled CCD camera (Wurdinger, T., et al., Nat Methods 2008, 5, 171-173).
GBM cells were first transduced with a lentivirus vector to stably express Fluc. Fifty thousands of these cells were intracranially injected in the brain of nude mice using the following coordinates from the bregma in mm: anterior-posterior +0.5 mm, medio-lateral +2.0 mm, dorso-ventral −2.5 mm. One week after implantation of 50,000 (low amount) or 200,000 (high amount) GBM cells, or 100 GBM spheres, mice were randomized into different treatment groups. Tumor growth was monitored over time by in vivo Fluc bioluminescence imaging after i.p. injection of 200 mg/kg D-luciferin substrate and acquiring signal using a cooled CCD camera (Wurdinger, T., et al., Nat Methods 2008, 5, 171-173).

[7] = test system: melanoma cells; test: Sensitization of melanoma cells to TMZ; format: cell-based; conditions: FIG. 7
[8] = test system: U87R1, U87R2, SNZ308R1, SNZ308R2, HS683R1 and HS683R2 TMZ-resistant cells; test: Gluc cell viability assay, TMZ-resistant glioma subclones; format: cell-based
Experimental: (§2) FIG. 1A is a set of graphs showing the effects of TMZ on tumor cells. U87, SNZ308, HS683 parental cells (P) and resistant clones (Res) were treated with different amounts of TMZ. After four days aliquots of conditioned medium were assayed for Gluc activity using 50 μl 2 μg/ml coelenterazine.
FIG. 1B is a set of graphs showing the effects of TMZ+HU on tumor cells. U87 and resistant clones R1/R2 were treated with TMZ and/or 100 μM HU. Cell viability was assessed by the Gluc assay.
The inventors previously generated two independent TMZ-resistant subclones from three different glioma cell lines (U87, SNZ308 and HS683) by long-term exposure (two times per week over seven weeks) to 100 μM TMZ, generating U87R1, U87R2, SNZ308R1, SNZ308R2, HS683R1 and HS683R2. These cells together with their parental counterparts were first engineered by lentivirus vector transduction to stably express the naturally secreted Gaussia luciferase (Gluc) as a reporter for cell viability. […] In this case, cell viability can be monitored over time by assaying aliquots of conditioned medium from these cells for Gluc activity. […] Using the U87R1 and U87R2 TMZ-resistant cells and the Gluc high-throughput screening assay (Badr, C. E., et al., Assay Drug Dev Technol, 2011 9, 281-289), a small library of 100 known anti-cancer agents was screened in the presence and absence of 100 μM TMZ. […]

[9] = test system: GBM8 tumors carrying methylated MGMT promoter; test: Intracranial primary GBM8-Fluc-mCherry tumor model; format: in vivo, nude mice
Experimental: FIG. 4A is an image showing that 10^5 GBM8 cells expressing Fluc and mCherry were stereotactically injected into the left midstriatum of nude mice brain.
FIG. 4D is a set of images showing the in vivo effects of TMZ+HU treatments on mice. Mice-bearing GBM8-Fluc-mCherry tumors were treated with TMZ or vehicle for two weeks, then left off TMZ for three weeks. TMZ-treated group was then divided into four subgroups which received vehicle, HU, TMZ, or HU+TMZ.
Primary GBM8 cells24 (from newly diagnosed tumor with methylated MGMT (Wakimoto, H., et al., Neuro Oncol 2012, 14, 132-144)) were grown in stem cell media as neural spheres. […] Upon intracranial injection, these cells formed tumors and infiltrated the brain of nude mice similar to human tumors (FIGS. 4A-4C). This model was used to test the efficacy of HU in combination with TMZ. Four weeks after implantation of 100,000 GBM8 cells, when tumors started to rapidly grow (as observed by Fluc imaging), mice were divided into two groups (n=20/group) which received DMSO vehicle or i.p. injection of 30 mg/kg TMZ four days/week over two weeks. […] Mice were then left off TMZ to allow for GBM tumors to recur potentially becoming resistant to TMZ, recapitulating the patient scenario. At this point, the TMZ group was divided into four subgroups (n=10/group) which received either DMSO, HU (50 mg/kg), TMZ (30 mg/kg) or HU+TMZ four days/week over three weeks. […] Next, the toxicity of this combined therapy was assessed by treating mice with either DMSO, TMZ, HU, or HU+TMZ for four consecutive days and analyzing the blood for white blood cells (WBC), hematocrit (HCT), mean corpuscular volume (MCV), red cell distribution width (RDW), hemoglobin (HGB), mean corpuscular hemoglobin (MCH), red blood cells (RBC), platelets (PLT), and mean platelet volume (MPV). No significant difference between different treated groups in comparison to DMSO control was found (Table 1). Hematotoxicity on bone marrow was also evaluated by preparing bone marrow smears and counting viable cells from untreated and TMZ/HU-treated naïve mice as above.

[10] = test system: TMZ-resistant primary glioma rpGBMa cells; test: Gluc cell viability assay, recurrent GBM cells with RNR inhibitors and TMZ; format: cell-based; conditions: GBM cells from recurrent tumors, four days
Experimental: FIG. 5A is a plot showing that glioma cells are sensitized to TMZ by ribonucleotide reductase inhibition. 3×10^3 TMZ-resistant primary glioma rpGBMa cells expressing Gluc were treated with […] of ribonucleotide reductase (RNR) inhibitor Fludarabine or Gemcitabine, in the presence or absence of 100 μM TMZ. After four days aliquots of conditioned medium were assayed for Gluc activity using 50 μl 2 μg/ml coelenterazine. Data presented as the mean Gluc RLU/mL +/−SD (n=8; **p<0.01 vs. no TMZ treatment by two-way ANOVA).
as §1, with “RBP-Jk is a DNA binding transcription factor and a direct downstream modulator of Notch signalling. Thus, this reporter can indirectly monitor Notch activity (Minoguchi, S., et al., Mol Cell Biol 1997, 17, 2679-2687).” left out

[11] = test system: GBM; conditions: cited from earlier work
[12] = test system: U87, SNZ308, HS683 parental cells; test: Gluc cell viability assay, parental glioma cell lines; format: cell-based; conditions: different amounts of TMZ, four days
Experimental: as §2
The inventors previously generated two independent TMZ-resistant subclones from three different glioma cell lines (U87, SNZ308 and HS683) by long-term exposure (two times per week over seven weeks) to 100 μM TMZ, generating U87R1, U87R2, SNZ308R1, SNZ308R2, HS683R1 and HS683R2. These cells together with their parental counterparts were first engineered by lentivirus vector transduction to stably express the naturally secreted Gaussia luciferase (Gluc) as a reporter for cell viability. […] In this case, cell viability can be monitored over time by assaying aliquots of conditioned medium from these cells for Gluc activity. […] Using the U87R1 and U87R2 TMZ-resistant cells and the Gluc high-throughput screening assay (Badr, C. E., et al., Assay Drug Dev Technol, 2011 9, 281-289), a small library of 100 known anti-cancer agents was screened in the presence and absence of 100 μM TMZ. […] The same results were obtained when HU was used in combination with TMZ on SNZ308 and HS683 resistant lines (data not shown).

[13] = second round, HU 50 mg/kg, TMZ 30 mg/kg, four days/week over three weeks

With `C[C@H](NC(=O)Cc1cc(F)cc(F)c1)C(=O)N[C@H](C(=O)OC(C)(C)C)c1ccccc1` [DAPT] the “change of Fluc activity” value ([1]; γ-secretase inhibition) was “decrease of Fluc activity similar to HU”.

For `NC(=O)NO` [HU, hydroxyurea], the mice survival [2] is listed as “no significant effect”, the “tumor growth (Fluc bioluminescence imaging)” value [2] is listed as “no significant effect” and the “effect on blood brain tumor permeability” value [3] is listed as “increases the blood brain tumor permeability of certain chemotherapeutics”. The MPV [4] was 6.3 ± 0.4, the “efficacy in malignant gliomas” value [5] was “limited efficacy” and the mice survival [6] was “no significant effect”. The “tumor growth (Fluc bioluminescence imaging)” value [6] was “no significant effect”, the “decrease in Fluc activity” value ([1]; 30 μM HU, 3 days) was 50% and the “sensitization of melanoma cells to TMZ” value [7] was “sensitizes melanoma cells to TMZ”. The “sensitization of resistant cells to TMZ” value ([8]; U87R1 and U87R2, 100 μM HU, TMZ) was “sensitize both resistance cell lines to TMZ”.

In the case of `Cn1nnc2c(C(N)=O)ncn2c1=O` [TMZ, 4-methyl-5-oxo-2,3,4,6,8-pentazabicyclo[4.3.0]nona-2,7,9-triene-9-carboxamide], the “tumor growth (Fluc bioluminescence imaging)” value [2] is reported as “not on U87R1 tumors”, the “tumor response, first round of treatment” value ([9]; 30 mg/kg TMZ i.p. four days/week over two weeks, start four weeks after implantation) is reported as “responded very well” and the “survival rate, recurred tumors after TMZ break” value [9, 13] is reported as “not a significant increase”. For the same compound, the “tumor volume / tumor growth, recurred tumors after TMZ break” value [9, 13] was “moderate effect”, the MPV [4] was 6.5 ± 0.4 and the “cell viability (Gluc assay), TMZ alone” value ([10]; 100 μM TMZ) was “moderate-to-no effect”. The mice survival [6] was “moderate effect”, the “tumor growth (Fluc bioluminescence imaging)” value [6] was “moderate effect” and the median survival ([11]; TMZ added to standard of care including surgery and radiation, 12.1 months without) was 14.6 months. For the same compound, the “patients who die after 5 years” value ([11]; patients receiving both TMZ and radiation) was 90%, the “overall 2 years survival” value ([11]; randomized phase III, combined therapy, 10.9% without) was 27.2% and the “cell viability (Gluc activity) on exposure to TMZ” value ([8]; resistant cell lines, up to 100 μM TMZ) was “no significant effect”. For the same compound, the “cell viability (Gluc activity) on exposure to TMZ” value [12] was “sensitive to TMZ in a dose-dependent fashion”.

For `Nc1ccn([C@@H]2O[C@H](CO)[C@@H](O)C2(F)F)c(=O)n1` [gemcitabine, 4-amino-1-(2-deoxy-2,2-difluoro-β-D-erythro-pentofuranosyl)pyrimidin-2(1H)-on], the “sensitization of GBM cells to TMZ” value ([10]; RNR inhibitor in presence or absence of 100 μM TMZ) was “sensitized GBM cells to TMZ”.

From patent US20160317531A1, “RIBONUCLEOTIDE REDUCTASE INHIBITORS SENSITIZE TUMOR CELLS TO DNA DAMAGING AGENTS” (THE GENERAL HOSPITAL CORPORATION, priority 2013, published 2016)
